Measured values: patent US3957987A, “Compositions containing a carbonamidoquinoxaline-di-N-oxide and method of using same” (Bayer Aktiengesellschaft, priority 1971, dated 1976)
In brackets after ≈: the same amount, converted by molar mass.

What was measured:
Type in all cases: cell-based
Aeromonas liquefaciens = experiment: Minimum inhibitory concentration, Aeromonas liquefaciens; settings: Aeromonas hydrophila
Mycoplasma gran = experiment: Minimum inhibitory concentration, Mycoplasma gran
[1] = system: Bordetella bronchiseptica; experiment: Minimum inhibitory concentration, Bordetella bronchiseptica
[2] = system: Staphylococcus aureus 133; experiment: Minimum inhibitory concentration in vitro, Staphylococcus aureus 133
Description: (§1) As representative of the spectrum of antimicrobial activity for these compounds, the following representative minimum inhibitory concentrations shown on Tables A, B and C can be noted:
(§2) Minimum Inhibitory Concentrations In Vitro, in μg/ml of Medium

Proteus vulgaris = experiment: Minimum inhibitory concentration in vitro, Proteus vulgaris specieis
Description: as §1, §2

Mycobacterium species = experiment: Minimum inhibitory concentration, Mycobacterium species
Description: As representative of the spectrum of antimicrobial activity for these compounds, the following representative minimum inhibitory concentrations shown on Tables A, B and C can be noted: […]

Streptococcus pyogenes = experiment: Minimum inhibitory concentration in vitro, Streptococcus pyogenes
Description: as §1, §2

Mycoplasma S6 = experiment: Minimum inhibitory concentration, Mycoplasma S6
Klebsiella 63 = experiment: Minimum inhibitory concentration in vitro, Klebsiella 63
Description: as §1, §2

Klebsiella 8085 = experiment: Minimum inhibitory concentration in vitro, Klebsiella 8085
Description: as §1, §2

Escherichia coli A 261 = experiment: Minimum inhibitory concentration in vitro, Escherichia coli A 261; settings: A261
Description: as §1, §2

[3] = system: Alcaligenes faecalis ATCC; experiment: Minimum inhibitory concentration, Alcaligenes faecalis ATCC
Escherichia coli C 165 = experiment: Minimum inhibitory concentration in vitro, Escherichia coli C 165; settings: C165
Description: as §1, §2

Clostridium tetani = experiment: microbe, parasite or virus in culture; settings: read-out: minimum inhibitory concentration
[4] = system: Pasteurella multocida ATCC; experiment: Minimum inhibitory concentration, Pasteurella multocida ATCC
Clostridium botulinum = experiment: microbe, parasite or virus in culture; settings: read-out: minimum inhibitory concentration

Row | Structure (SMILES) | MIC (Aeromonas liquefaciens) | MIC (Mycoplasma gran) | MIC [1] | MIC [2] | MIC (Proteus vulgaris) | MIC (Mycobacterium species) | MIC (Streptococcus pyogenes) | MIC (Mycoplasma S6) | MIC (Klebsiella 63) | MIC (Klebsiella 8085) | MIC (Escherichia coli A 261) | MIC [3] | MIC (Escherichia coli C 165) | MIC (Clostridium tetani) | MIC [4] | MIC (Clostridium botulinum)
1 | CNC(=O)c1c(C=NNC(=O)OC)[n+]([O-])c2ccccc2[n+]1[O-] [Example 13] | 100 µg/mL (≈ 313 µM) | 100 µg/mL (≈ 313 µM) | 100 µg/mL (≈ 313 µM) | 100 µg/mL (≈ 313 µM) | 100 µg/mL (≈ 313 µM) | 100 µg/mL (≈ 313 µM) | 100 µg/mL (≈ 313 µM) | 100 µg/mL (≈ 313 µM) | 100 µg/mL (≈ 313 µM) | 10 µg/mL (≈ 31.3 µM) | 100 µg/mL (≈ 313 µM) | 100 µg/mL (≈ 313 µM) | 100 µg/mL (≈ 313 µM) | 100 µg/mL (≈ 313 µM) | 100 µg/mL (≈ 313 µM) | 100 µg/mL (≈ 313 µM)
2 | CNC(=O)c1c(C=NO)[n+]([O-])c2ccccc2[n+]1[O-] [Example 19] | 100 µg/mL (≈ 381 µM) | 100 µg/mL (≈ 381 µM) | 100 µg/mL (≈ 381 µM) | 100 µg/mL (≈ 381 µM) | 100 µg/mL (≈ 381 µM) | 40 to 100 µg/mL (≈ 153 to 381 µM) | 100 µg/mL (≈ 381 µM) | 100 µg/mL (≈ 381 µM) | 100 µg/mL (≈ 381 µM) | 100 µg/mL (≈ 381 µM) | 100 µg/mL (≈ 381 µM) | 100 µg/mL (≈ 381 µM) | 100 µg/mL (≈ 381 µM) | 100 µg/mL (≈ 381 µM) | 100 µg/mL (≈ 381 µM) | 100 µg/mL (≈ 381 µM)
